Values of other authors as cited in patent US20140302178A1, “Natural Product for Decreasing Symptoms During Viral Infections” (priority 2013, published 2014).

Test system: Herpes Simplex Virus (HSV)
Conditions: oral antiviral therapy; pooled meta-analysis

Structure (SMILES) | decrease of outbreak duration and the associated pain [days]
Nc1nc2c(ncn2COCCO)c(=O)[nH]1 [aciclovir] | 1
CC(=O)OCC(CCn1cnc2cnc(N)nc21)COC(C)=O [famciclovir] | 1
CC(C)[C@H](N)C(=O)OCCOCn1cnc2c(=O)[nH]c(N)nc21 [valaciclovir] | 1
